Source: patent US20130184223A1, “METHODS AND COMPOSITIONS RELATED TO MODULATING AUTOPHAGY” (UNIVERSITY OF ROCHESTER, priority 2010, published 2013)
Read-outs that look alike come from different tables or passages of the source.

Assays:
[1] = tested on: lymphoma, colon cancer, lung cancer, and pancreatic cancer cells; details: prior studies referred to in the text, cited from earlier work
[2] = tested on: mp53/Ras transformed cells; assay: Lamp2/GFP-LC3 colocalization (autophagosomal/lysosomal fusion), mp53/Ras cells; assay type: cell-based, murine; details: nutrient starved in HBSS 15 minutes
Source text: The Plac8 KD dependent accumulation of autophagosomes and autophagosomal biochemical markers can be due to an induction of autophagosome formation (on-rate) or inhibition in autophagosome clearance via autophagosomal/lysosomal fusion (off-rate). […] To explore if Plac8 is required for autophagosomal/lysosmal fusion a GFP-LC3 fusion protein was expressed to label autophagosomes and immunostained for Lamp2, a lysosomal marker. Co-localization of GFP-LC3 and Lamp2 indicates the formation of an autolysosome, or the completion of autophagosomal/lysosomal fusion.
Cells were plated onto collagen-1 coated 22 mm glass coverslips (BD Biosciences) in 6 well plates at 5×10^4 cells per well. […] Cells were analyzed and imaged using a Leica inverted confocal microscope (Lieca).
GFP-LC3 expressing cells were fixed, stained, mounted, and imaged by the methods described in previous section titled Immunofluorescent staining of cells. To quantify GFP-LC3 punctae images were analyzed using the ImageJ plug-in Watershed Segmentation. […] The resulting image was quantified by measuring the mean green and blue signals per image and dividing the blue signal by the total green signal to get the amount of punctae per total GFP-LC3 expressed in the cell. […] To quantify GFP-LC3 colocalization images were analyzed using the ImageJ plug-in Colocalization Finder. […]

[3] = tested on: mp53/Ras transformed cells and CAPAN-2 cells; assay: Immunocompromised mouse tumorigenicity assay, cells expressing autophagy modulators; assay type: in vivo; details: cells expressing the protein or shRNA vs vector control; 5×10^5 cells per injection; 4 weeks mp53/Ras, 5 weeks CAPAN-2
Description: To determine whether cooperative up-regulation of autophagy is required for tumorigenesis Atg12, a gene involved in autophagosome formation, was knocked-down using two independent constructs in mp53/RasV12 and Capan-2 cells. In addition, a genetic rescue experiment was performed by introducing a shRNA resistant form of ATG12 into these cell backgrounds to test for ATG12 specificity of the observed effects. Tumor formation was inhibited by Atg12 KD in both mp53/Ras and CAPAN-2 cell lines and was rescued by expression of the exogenous shRNA resistant Atg12 (FIG. 4.5a, 4.5c).
Cells were cultured on 15 cm dishes for two days without selective antibiotics at 39 C for mp53/Ras cells and at 37 C for HT-29, CAPAN-2, PANC-1, and 5 Panc10.05. Cells were plated at the following densities: mp53/Ras—7.5×10^5, HT-29 —1.5×10^6, CAPAN-2 —4×10^6, PANC—4×10^6, and PANC 10.05—2×10^6. Cells were trypsinized, counted and re-suspended in RPMI medium lacking supplements for mp53/Ras, CAPAN-2, and Panc10.05, and DMEM lacking supplements for HT-29 and PANC-1 at a density of 5×10^5/100 ul for mp53/Ras and CAPAN-2 cells, 1.25×10^5/100 ul for HT-29 cells, 5×10^6/100 ul for PANC-1, 2×10^6/100 ul for Panc10.05. […] Tumor volume was measured every week for 4 weeks for mp53/Ras and HT-29 cells, 5 weeks for CAPAN-2 cells, and 6 weeks for PANC-1.

[4] = tested on: mp53/Ras transformed cells and CAPAN-2 cells; assay: Immunoblot of p62 and LC3 in cells expressing autophagy modulators; assay type: cell-based; details: cells expressing the protein vs vector control
Source text: Thus, the effects of Plac8 KD on both tumor formation and autophagy can be suppressed by constitutive activation of Rab7.
Moreover, the molecular machinery employed in autophagosomal/lysosomal fusion, such as Rab7, is required for endosomal/lysosomal fusion, which is also required for tumor formation in some cancers.
To determine if the Plac8 KD-induced loss of tumor formation is specifically due to a loss of autophagy completion, Atg12, a gene required for autophagosomal formation, was overexpressed in Plac8 KD cells.
YAMC, vector, mp53, Ras, and mp53/Ras cells were cultured for two days at 39 C in RPMI with 10% FBS medium and gentamicin in collagen-I coated 15 cm dishes. HT-29, CAPAN-2, PANC-1 and Panc 10.05 cells were cultured for two days at 37 C in maintenance media without selective antibiotics on 15 cm dishes. […] Protein concentration was quantified using Bradford reagent (BioRad) and a Genesys 1 0UV spectrophotometer (Spectronic Unicam). […]

[5] = tested on: YAMC, mp53, Ras and mp53/Ras transformed cells; assay: Immunoblot of autophagy markers p62 and LC3 after drug treatment; assay type: cell-based, murine; details: 10 mM 3-methyladenine (3MA) for 24 hrs
Description: To identify if the p62 degradation and LC3 conversion is specifically due to autophagy YAMC, mp53, Ras, and mp53/Ras cells were treated with 3-methyladenine, a specific pharmacologic inhibitor of autophagosome formation (FIG. 4.3).
YAMC, vector, mp53, Ras, and mp53/Ras cells were cultured for two days at 39 C in RPMI with 10% FBS medium and gentamicin in collagen-I coated 15 cm dishes. […] Protein concentration was quantified using Bradford reagent (BioRad) and a Genesys 1 0UV spectrophotometer (Spectronic Unicam). […] Proteins were detected with primary antibodies at the following dilutions in PBST with 5% milk at 4 C overnight: HA-tagged Plac8 —1:1000 dilution of HA antibody (Roche), —Tubulin—1:1000 of—Tubulin antibody (Santa Cruz), Plac8 —1:500 of Plac8 antibody (PRF&L, Inc.), Lamp2 —1:5000 of Lamp2 antibody (Abcam), Rab7 —1:1000 Rab7 antibody (Sigma), LC3 —1:2000 of LC3B antibody (Sigma), RhoA—1:1000 RhoA antibody (Santa Cruz), Cathepsin D—1:1000 Cathepsin D antibody (Santa Cruz), p62 —1:5000 of p62 antibody (PROGEN), 3× Flag-tagged proteins—1:1000 dilution of 3× Flag antibody and 1:2500 of HRP-conjugated 3× Flag antibody (Sigma), Rab5a—1:1000 dilution of Rab5 antibody (Abcam), phosphop70S6K (Thr389)—1:1000 dilution of phospho-p70S6K (Thr389) antibody (Cell Signaling), p70S6K—1:1000 dilution of p70S6K antibody (Cell Signaling), Atg12—1:250 Atg12 antibody (Sigma). […]

For `CO/C1=C\C(C)=C\[C@@H](C)[C@@H](O)[C@@H](C)C/C(C)=C/C=C/[C@H](OC)[C@@H]([C@@H](C)[C@@H](O)[C@H](C)[C@@]2(O)C[C@@H](O)[C@H](C)[C@@H](C(C)C)O2)OC1=O` [Bafilomycin A1], the “tumor formation / tumor growth” value [1] is listed as “inhibits tumor growth”, the “tumor formation / tumor growth” value ([1]; listed as bafilomycin A1) is listed as “tumor inhibitory” and the “tumor formation / tumor growth” value ([1]; listed as baflomycin A1) is listed as “effective at inhibiting tumor formation”.

For “Rab7 DN: 3× Flag-tagged Rab7 T22N dominant negative mutant, inhibits autophagosomal/lysosomal fusion”, the “inhibition of GFP-LC3/Lamp2 colocalization” value [2] was 74%, the “tumor formation in nude mice” value [3] was “inhibition of tumor formation” and the “p62 and LC3 protein levels” value [4] was “accumulation of p62 and LC3”.

For `Cn1cnc(N)c2ncnc1-2` [3-methyladenine], the “p62 and LC3 protein levels” value [5] was “p62 and LC3-I increase” and the “p62 and LC3 protein levels” value ([5]; listed as 3MA) was “Accumulation of p62 and LC3”.

In the case of “Rab7 DA: 3× Flag-tagged Rab7 Q67L dominant active mutant, activates autophagosomal/lysosomal fusion”, the “tumor formation in nude mice” value [3] is reported as “inhibits tumor formation”.
